According to patent publication US20220257597A1, “Methods of Administering Elagolix” (AbbVie Inc., priority 2021, published 2022):

Columns and labels:
[1] = Drug-drug interaction study: effect of multiple doses of elagolix sodium on pharmacokinetics of omeprazole (CYP2C19 substrate) and its metabolites; settings: for M:P AUCinf Ratio, Relative Bioavailability Point Estimate / M:P AUCt Ratio, Relative Bioavailability Point Estimate: Day 11 vs. Day 1; for AUCinf / AUCt / Cmax: geometric mean; for RAUCinf = metabolite-to-omeprazole AUCinf ratio / RAUCt = metabolite-to-omeprazole AUCt ratio / Tmax: median; for M:P AUCinf Ratio, Central Value Reference / M:P AUCt Ratio, Central Value Reference: Study Day 1: omeprazole 40 mg; for M:P AUCinf Ratio, Central Value Test / M:P AUCt Ratio, Central Value Test: Study Day 11: elagolix 300 mg BID + omeprazole 40 mg
Method: Subjects: Twenty adult premenopausal female subjects were enrolled in the study.
Beginning on Day 3, subjects received elagolix 300 mg BID under fasting conditions every day until Day 10. […] Doses of elagolix were separated by approximately 12 hours.
Testing was performed for CYP2C19 variants including the *2 (r54244285), *3 (r54986893), *4 (r528399504), *8 (r541291556), *10 (r56413438) and *12 (r555640102) alleles.
Safety was evaluated during confinement and at each study visit through adverse event monitoring, vital signs measurements, physical examinations, and routine laboratory tests.

[2] = Drug interaction studies: change in pharmacokinetics of co-administered drug in the presence of elagolix; type: in vivo, human
Method: Drug interaction studies were performed with elagolix and other drugs likely to be co-administered and with drugs commonly used as probes for pharmacokinetic interactions. Tables 8 and 9 summarize the pharmacokinetic effects when elagolix was co-administered with these drugs.

[3] = Drug interactions: effects of ORIAHNN on other drugs; settings: co-administration of ORIAHNN
[4] = Drug interactions: effects of ORILISSA on other drugs; settings: co-administration of ORILISSA
[5] = Phase 1 open-label study: coadministration of combined oral contraceptive (EE+LNG) with elagolix sodium, pharmacokinetics, safety and tolerability; type: in vivo, human; settings: for AUC(0-inf) / AUC(0-t) / Cmax: female, human, in vivo, oral
Method: Objective: To evaluate the effect of elagolix on the pharmacokinetics, safety, and tolerability of a single dose of a combined oral contraceptive (COC) containing EE and LNG in healthy premenopausal female subjects. […] [table] […] Diagnosis and Main Criteria for Inclusion: Subjects were premenopausal females, and age was between 18 and 49 years, inclusive. Test Product, Dose/Strength/Concentration, and Mode of Administration: […] EE/LNG 0.02 mg/0.1 mg tablet; All study drugs were administered orally. Duration of Treatment: […] EE/LNG: 0.02 mg/0.1 mg on two separate occasions. Criteria for Evaluation: Pharmacokinetic: Cmax, Tmax, t1/2 and AUC. Safety: Vital signs, physical examinations, laboratory tests, and adverse events. […] The tabulation of the number of subjects with treatment-emergent adverse events also was provided with further breakdowns by severity rating and relationship to study drug.

[6] = Drug-drug interaction study: effect of multiple doses of elagolix sodium on pharmacokinetics of bupropion (CYP2B6 substrate) and OH-bupropion; settings: for t1/2: harmonic mean
Method: Subjects: Twenty four (24) adult premenopausal women in generally good health participated in this study.
Elagolix 300 mg BID (as 300 mg immediate release tablets) was administered in the morning and evening on days 1 through 14 in period 2. […] No food was consumed for 2 hours prior to the evening doses of elagolix continuing through 2 hours after. The doses of elagolix were separated by approximately 12 hours.
Individual PK parameters (peak concentration [Cmax] and area under the concentration-time curve [AUC]) were estimated using noncompartmental methods.
Central value ratios (90% confidence intervals) for Cmax, AUC, and metabolite to parent ratios (MPRs) (day 11, period 2 vs. day 1, period 1) were calculated to assess the DDIs. Safety was evaluated through assessment of adverse events, vital signs, electrocardiogram, and clinical laboratory tests.
Adverse events (AEs) were monitored throughout the DDI study. Additional safety evaluations included monitoring of physical examinations, vital signs, electrocardiogram variables, and clinical laboratory values were assessed

[7] = Study Day 1, omeprazole 40 mg, harmonic mean
[8] = Study Day 11, omeprazole 40 mg + elagolix 300 mg BID
[9] = norethindrone 0.35 mg once daily x 112 days, elagolix 150 mg once daily x 56 days, N 32
[10] = midazolam 2 mg single dose, elagolix 150 mg once daily x 13 days, N 11
[11] = midazolam 2 mg single dose, elagolix 300 mg twice daily x 11 days, N 20
[12] = ethinyl estradiol 20 mcg/levonorgestrel 0.1 mg single dose, elagolix 200 mg twice daily x 15 days, N 20
[13] = following elagolix 200 mg BID for 14 days
[14] = bupropion 150 mg + elagolix 300 mg BID (Day 11, Period 2), mean
[15] = bupropion 150 mg alone (Day 1, Period 1), mean
[16] = bupropion + elagolix (Day 11, Period 2), median
[17] = bupropion alone (Day 1, Period 1), median
[18] = single 150 mg bupropion, elagolix 300 mg twice daily
[19] = single 40 mg omeprazole, elagolix 300 mg twice daily
[20] = ethinyl estradiol 35 mcg and triphasic norgestimate 0.18/0.215/0.25 mg once daily, elagolix 150 mg once daily, N 21

## COc1ccc2nc([S+]([O-])Cc3ncc(CO)c(OC)c3C)[nH]c2c1 (stereo not drawn) [5-hydroxyomeprazole]
[1]
  M:P AUCinf Ratio, Relative Bioavailability Point Estimate: 0.432
  M:P AUCt Ratio, Relative Bioavailability Point Estimate: 0.412
  M:P AUCinf Ratio, Central Value Reference: 0.458
  M:P AUCt Ratio, Central Value Reference: 0.471
  M:P AUCinf Ratio, Central Value Test: 0.198
  M:P AUCt Ratio, Central Value Test: 0.194
[1]; Study Day 1, omeprazole 40 mg
  AUCinf: 883 ng·h/mL
  AUCt: 857 ng·h/mL
  Cmax: 195 ng/mL
  RAUCinf = metabolite-to-omeprazole AUCinf ratio: 0.61
  RAUCt = metabolite-to-omeprazole AUCt ratio: 0.65
  Tmax: 2.0 h
[1]; [7]
  t1/2: 1.88 h
[1]; [8]
  AUCinf: 664 ng·h/mL
  AUCt: 643 ng·h/mL
  Cmax: 134 ng/mL
  RAUCinf = metabolite-to-omeprazole AUCinf ratio: 0.20
  RAUCt = metabolite-to-omeprazole AUCt ratio: 0.20
  Tmax: 3.0 h
[1]; Study Day 11, omeprazole 40 mg + elagolix 300 mg BID, harmonic mean
  t1/2: 1.97 h
[1]; all CYP2C19 genotype subgroups, elagolix co-administration
  decrease in AUCinf in all genotype subgroups: 20-30%
[1]; elagolix 300 mg BID dosing
  decrease in AUCinf: ~25%
  decrease in Cmax: approximately 30%
  decrease in M:P AUCinf ratio: 60%

## C#C[C@]1(O)CC[C@H]2[C@@H]3CCC4=CC(=O)CC[C@@H]4[C@H]3CC[C@@]21C [Norethindrone]
[2]; [9]
  Ratio (90% CI) AUC, co-administration with elagolix vs medication alone: 0.88
  Ratio (90% CI) Cmax, co-administration with elagolix vs medication alone: 0.95

## Cc1ncc2n1-c1ccc(Cl)cc1C(c1ccccc1F)=NC2 [midazolam]
[2]; [10]
  Ratio (90% CI) AUC, co-administration with elagolix vs medication alone: 0.65
  Ratio (90% CI) Cmax, co-administration with elagolix vs medication alone: 0.81
[2]; [11]
  Ratio (90% CI) AUC, co-administration with elagolix vs medication alone: 0.46
  Ratio (90% CI) Cmax, co-administration with elagolix vs medication alone: 0.56
[3]
  Effect on Plasma Exposure of Concomitant Drug (direction of change in AUC): ↓ midazolam
[4]
  Effect on Plasma Exposure of Concomitant Drug (direction of change in AUC): ↓ midazolam

## C#C[C@]1(O)CC[C@H]2[C@@H]3CCC4=CC(=O)CC[C@@H]4[C@H]3CC[C@@]21CC [levonorgestrel, 17α-Ethynyl-18-methylestr-4-en-17β-ol-3-one]
[5]; COC containing 0.1 mg levonorgestrel, elagolix 200 mg twice daily
  decrease in plasma concentrations of levonorgestrel: 27%
[5]; [12]
  Ratio (90% CI) AUC, co-administration with elagolix vs medication alone: 0.73
  Ratio (90% CI) Cmax, co-administration with elagolix vs medication alone: 0.97
[5]; Study Day 1: EE/LNG 0.02 mg/0.1 mg, read-out: AUCinf, Central Value Reference
  AUC(0-inf): 42.1 ng·h/mL
[5]; Study Day 1: EE/LNG 0.02 mg/0.1 mg, read-out: AUCt, Central Value Reference
  AUC(0-t): 31.1 ng·h/mL
[5]; Study Day 1: EE/LNG 0.02 mg/0.1 mg, read-out: Cmax, Central Value Reference
  Cmax: 2.62 ng/mL
[5]; Study Day 18: EE/LNG 0.02 mg/0.1 mg + elagolix 200 mg, read-out: AUCinf, Central Value Test
  AUC(0-inf): 30.5 ng·h/mL
[5]; Study Day 18: EE/LNG 0.02 mg/0.1 mg + elagolix 200 mg, read-out: AUCt, Central Value Test
  AUC(0-t): 25 ng·h/mL
[5]; Study Day 18: EE/LNG 0.02 mg/0.1 mg + elagolix 200 mg, read-out: Cmax, Central Value Test
  Cmax: 2.54 ng/mL
[5]; [13]
  decrease in AUCinf: 27%
  decrease in Cmax: 3%
[3]
  Effect on Plasma Exposure of Concomitant Drug (direction of change in AUC): ↓levonorgestrel
[4]
  Effect on Plasma Exposure of Concomitant Drug (direction of change in AUC): ↓ levonor-

## CC(NC(C)(C)C)C(=O)c1cccc(Cl)c1.Cl (racemic) [bupropion, (±)-1-(3-chlorophenyl)-2-[(1,1-dimethylethyl)amino]-1-propanone hydrochloride, reference compound]
[6]
  Cmax upon co-administration with elagolix, in words: increased
[6]; elagolix 300 mg BID
  increase in Cmax upon co-administration with elagolix: 25%
[6]; female, human, in vivo, 150 mg
  AUC(0-inf): 1130 ng·h/mL
  AUC(0-t): 1090 ng·h/mL
  Cmax: 89.5 ng/mL
  Tmax: 4 h
[2]; elagolix 300 mg twice daily
  changes in exposures when co-administered with elagolix, in words: No clinically significant changes

## CC(NC(C)(C)CO)C(=O)c1cccc(Cl)c1 (stereo not drawn) [OH-Bupropion]
[6]; bupropion 150 mg + elagolix 300 mg BID (Day 11, Period 2)
  t1/2: 20.5 h
[6]; [14]
  AUCinf: 17600 ng·h/mL
  AUCt: 17000 ng·h/mL
  Cmax: 429 ng/mL
[6]; bupropion 150 mg + elagolix 300 mg BID (Day 11, Period 2), median, N = 24
  Tmax: 6.0 h
[6]; bupropion 150 mg alone (Day 1, Period 1)
  t1/2: 24.7 h
[6]; [15]
  AUCinf: 16700 ng·h/mL
  AUCt: 15700 ng·h/mL
  Cmax: 323 ng/mL
[6]; bupropion 150 mg alone (Day 1, Period 1), median, N = 24
  Tmax: 10.0 h
[6]; [16]
  Metabolite to Parent AUCinf Ratio: 15.9
  Metabolite to Parent AUCt Ratio: 15.9
  Metabolite to Parent Cmax Ratio: 3.92
[6]; [17]
  Metabolite to Parent AUCinf Ratio: 15.7
  Metabolite to Parent AUCt Ratio: 15.4
  Metabolite to Parent Cmax Ratio: 3.61
[6]
  Cmax upon co-administration with elagolix, in words: increased
[6]; elagolix 300 mg BID
  changes in metabolite to parent ratios (OH-bupropion/bupropion) of Cmax and AUC: ≤ 12%
  increase in Cmax upon co-administration with elagolix: 32%
[6]; [18]
  AUCinf ratio, co-administered with elagolix vs bupropion alone: about 1.063
  Cmax ratio, co-administered with elagolix vs bupropion alone: about 1.317

## COc1ccc2nc(S(=O)(=O)Cc3ncc(C)c(OC)c3C)[nH]c2c1 [omeprazole sulfone]
[1]
  M:P AUCinf Ratio, Relative Bioavailability Point Estimate: 1.246
  M:P AUCt Ratio, Relative Bioavailability Point Estimate: 1.497
  M:P AUCinf Ratio, Central Value Reference: 0.825
  M:P AUCt Ratio, Central Value Reference: 0.679
  M:P AUCinf Ratio, Central Value Test: 1.028
  M:P AUCt Ratio, Central Value Test: 1.017
[1]; Study Day 1, omeprazole 40 mg
  AUCinf: 1400 ng·h/mL
  AUCt: 1240 ng·h/mL
  Cmax: 152 ng/mL
  RAUCinf = metabolite-to-omeprazole AUCinf ratio: 0.85
  RAUCt = metabolite-to-omeprazole AUCt ratio: 0.76
  Tmax: 3.5 h
[1]; [7]
  t1/2: 3.27 h
[1]; [8]
  AUCinf: 3450 ng·h/mL
  AUCt: 3380 ng·h/mL
  Cmax: 411 ng/mL
  RAUCinf = metabolite-to-omeprazole AUCinf ratio: 0.99
  RAUCt = metabolite-to-omeprazole AUCt ratio: 0.97
  Tmax: 4.0 h
[1]; co-administration with elagolix
  Cmax and AUCinf values upon co-administration with elagolix, in words: increased
[1]; elagolix 300 mg BID dosing
  increase in AUCinf: 2.5 fold
  increase in Cmax: 2.7 fold
  increase in M:P AUCinf ratio: 25%
[1]; extensive and intermediate metabolizers, elagolix co-administration
  increase in exposures (AUCinf) in CYP2C19 EM and IM subjects: ~3 fold
[1]; [19]
  AUCinf ratio, co-administered with elagolix vs omeprazole alone: about 2.55
  Cmax ratio, co-administered with elagolix vs omeprazole alone: about 2.70

## C#CC1(O)CC[C@H]2[C@@H]3CCC4=CC(=O)CC[C@@H]4[C@H]3CC[C@@]21CC (stereo partly drawn) [Norgestrel]
[2]; [20]
  Ratio (90% CI) AUC, co-administration with elagolix vs medication alone: 0.92
  Ratio (90% CI) Cmax, co-administration with elagolix vs medication alone: 0.89

## C#C[C@]1(O)CC[C@H]2[C@@H]3CCC4=CC(=NO)CC[C@@H]4[C@H]3CC[C@@]21CC (mixture of isomers) [Norelgestromin]
[2]; [20]
  Ratio (90% CI) AUC, co-administration with elagolix vs medication alone: 0.85
  Ratio (90% CI) Cmax, co-administration with elagolix vs medication alone: 0.87

## COc1ccc2[nH]c([S+]([O-])Cc3ncc(C)c(OC)c3C)nc2c1 (stereo not drawn) [omeprazole, 5-methoxy-2-[[(4-methoxy3,5-dimethyl-2-pyridinyl)methyl]sulfinyl]-1H-benzimidazole, reference compound]
[3]
  Effect on Plasma Exposure of Concomitant Drug (direction of change in AUC): ↑ omeprazole
[4]
  Effect on Plasma Exposure of Concomitant Drug (direction of change in AUC): ↑ omeprazole
[1]; Study Day 1, omeprazole 40 mg
  Tmax: 2.0 h
[1]; [8]
  Tmax: 2.0 h
[1]; female, human, in vivo
  t1/2: 1.57 h
[1]; female, human, in vivo, 300 mg
  increase in AUCinf: 1.8 fold
  increase in Cmax: 1.9 fold
[1]; human, in vivo
  Cmax and AUCinf values upon co-administration with elagolix, in words: increased
